Measurements taken from patent US7855196B2 (priority 2005, dated 2010).
Read-outs that look alike come from different tables or passages of the source.

What was measured:
[1] = Sedation / side effects observed in treated patients (clinical case examples)

Cc1nnc2n1-c1ccc(Cl)cc1C(c1ccccc1)=NC2 [alprazolam, 8-chloro-1-methyl-6-phenyl-4H-s-triazolo[4,3-a][1,4] benzodiazepine]
pain rating after treatment (human, in vivo): 4/10 | pain remission (human, in vivo): increased period of pain remission | pain response (human, in vivo): sustained results | sedation limiting augmentation of dosage ([1]; Example 1: alprazolam 0.5 mg TID and 2 mg HS): severe patient sedation | sedation limiting augmentation of dosage ([1]; Example 2: alprazolam 0.25 mg QID): severe sedation | side effects ([1]; Example 8: alprazolam 5 mg/day): experienced alprazolam side effects

Cc1ncc2n1-c1ccc(Cl)cc1C(c1ccccc1F)=NC2 [midazolam]
improvement of pain (human, in vivo, iv): 40% | level of pain after treatment (human, in vivo, iv): 3/10 | pain level after treatment (human, in vivo, iv): 0/10 | pain rating after treatment (human, in vivo, iv): 3/10 | sedation ([1]; Example 2: midazolam 2 mg iv): experienced sedation | sedation ([1]; Example 5: midazolam 2 mg iv): did not present any signs of sedation

CCOC(=O)c1ncn2c1CN(C)C(=O)c1cc(F)ccc1-2 [flumazenil]
low back pain after injection (Example 3: phantom-like pain, patient on alprazolam 6 mg a day, flumazenil 100 μg, 5 minutes after injection, before 7/10): 5/10 | effect on midazolam response to pain (Example 4: flumazenil 200 μg iv 5 minutes after midazolam 2 mg iv (ratio 10:1)): without altering the midazolam response to pain | pain after treatment (Example 5: flumazenil 200 μg iv after midazolam 2 mg iv, before 3/10): pain disappeared | pain 25 minutes after treatment (Example 8: further flumazenil 300 μg iv after midazolam 5 mg and flumazenil 500 μg, 25 minutes after treatment): 4/10 | pain rating after treatment (Example 8: further flumazenil 300 μg iv ten minutes later, after 5 minutes, before 5/10): 3/10 | pain level while moving arm (human, in vivo, iv): 1/10
